A short description of data set [1]: Assessment of water-solubility. The format is physicochemical. Conditions: assessed similarly to Example 1. As to the method: The water solubility of a compound of formula (I-2) was assessed similarly to Example 1, to check that the compound is water soluble.
The nature of data set [2]: Photochromic property: absorption and fluorescence spectra in solution. It is filed as physicochemical. The protocol:
The spectrum of the open ring form is shown by dotted line 10. Irradiation with the UV light (313 nm) turned the solution purple, and a spectrum shown by solid line 20 was observed.
The water solubility of a compound of formula (I-2) was assessed similarly to Example 1, to check that the compound is water soluble. Specifically, the compound of (1-2) was dissolved in a small amount of methanol (0.2 mL), and distilled water (4 mL) was added to prepare a 95% aqueous solution, and an absorption spectrum of FIG. 2 (by Hitachi, using U-4100) was obtained as a result. The spectrum of the open ring form is shown by dotted line 10. Irradiation with a UV light (313 nm) turned the solution yellow, and a spectrum shown by solid line 20 was observed. In addition, the irradiation with the UV light made the compound fluorescent, and a spectrum of solid line 30 was obtained.
Curve 10 is a spectrum of the compound (open ring form) of formula (I-3), and the maximum absorption wave length was 254 nm. Then, an aqueous solution of the compound of formula (I-3) was irradiated with light of 254 nm to obtain a photostationary state (PSS), in which the ring closing reaction has ended. The spectrum at this state is shown as curve 20. The maximum absorption wavelength of the closed ring form was 595 nm.
About 0.5 mg of the given compound was dissolved in each of 0.5 mL of water/methanol (weight rate of 90/10) and 0.5 mL of only methanol to prepare a solution. For convenience, the former will be referred to as an aqueous solution, and the latter will be referred to as a methanol solution. Curve 10 is a spectrum of the compound of formula (I-4) (open ring form). In the methanol solution, the maximum absorption wavelength is 450 nm, and the molar absorption coefficient was 39000 M^−1 cm^−1. The absorption disappeared when irradiated with visible light, and the solution returned to a colorless state. Curve 20 is a spectrum of the closed ring form. […] Further, the fluorescence disappeared when the compound returned to the open ring form.
In the aqueous solution, the maximum absorption wavelength of the open ring form was 458 nm, and the molar absorption coefficient was 36000 M^−1 cm^−1. The absorption disappeared when irradiated with visible light, and the solution returned to a colorless state. […] Further, the fluorescence disappeared when the compound returned to the open ring form.

Where [3] appears, read: 95% aqueous solution, UV 313 nm.

Take `Cc1sc(C(=O)O[C@@H]2[C@H](O)[C@@H](O)[C@H](O)[C@@H](O)[C@@H]2O)cc1C1=C(c2cc(C(=O)O[C@@H]3[C@H](O)[C@@H](O)[C@H](O)[C@@H](O)[C@@H]3O)sc2C)C(F)(F)C(F)(F)C1(F)F` [I-3]: in data set [1], the water solubility result is on record as “water soluble”. Further, the “maximum absorption wave length, open ring form” value in data set [2] (aqueous solution) worked out at 254 nm. In data set [2] (aqueous solution, photostationary state after 254 nm light), the “maximum absorption wavelength, closed ring form” value is reported as 595 nm. In data set [2] (aqueous solution, visible light longer than 600 nm), the photochromism entry is on record as “reversible photochromism”.

As to `CC1=C(C2=C(C3=C(C)S(=O)(=O)c4cc(CO[C@@H]5O[C@H](CO)[C@@H](O)[C@H](O)[C@H]5O)ccc43)C(F)(F)C(F)(F)C2(F)F)c2ccc(CO[C@@H]3O[C@H](CO)[C@@H](O)[C@H](O)[C@H]3O)cc2S1(=O)=O` [I-2], the water solubility entry in data set [1] is “water soluble”. In data set [2] (setting [3]), the “colour of solution after irradiation with UV light” value is “yellow” and the “fluorescence after irradiation with UV light” value is recorded as “fluorescent”.
